#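 Where inhibition never reached the appropriate level, the endpoint shown equals the highest concentration tested. Otherwise, values were interpolated linearly from a five-concentration, 48-hour dose response in 96-well plates. TGI marks complete inhibition of growth.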
# Key:
# Experiment in all cases: NCI-60 cell line screen, 48 h
# [1] = tested on: 786-0 renal
# [2] = tested on: A498 renal
# [3] = tested on: A549 NSCLC
# [4] = tested on: ACHN renal
# [5] = tested on: CAKI-1 renal
# [6] = tested on: CCRF-CEM leukemia
# [7] = tested on: COLO 205 colon
# [8] = tested on: DLD-1 colon
# [9] = tested on: DMS 114 small cell lung
# [10] = tested on: DMS 273 small cell lung
# [11] = tested on: EKVX NSCLC
# [12] = tested on: HCC-2998 colon
# [13] = tested on: HCT-116 colon
# [14] = tested on: HCT-15 colon
# [15] = tested on: HL-60(TB) leukemia
# [16] = tested on: HOP-18 NSCLC
# [17] = tested on: HOP-62 NSCLC
# [18] = tested on: HOP-92 NSCLC
# [19] = tested on: HT29 colon
# [20] = tested on: IGROV1 ovarian
# [21] = tested on: K-562 leukemia
# [22] = tested on: KM12 colon
# [23] = tested on: KM20L2 colon
# [24] = tested on: LOX IMVI melanoma
# [25] = tested on: LXFL 529 NSCLC
# [26] = tested on: M14 melanoma
# [27] = tested on: M19-MEL melanoma
# [28] = tested on: MALME-3M melanoma
# [29] = tested on: MOLT-4 leukemia
# [30] = tested on: NCI-H226 lung
# [31] = tested on: NCI-H23 lung
# [32] = tested on: NCI-H460 lung
# [33] = tested on: OVCAR-3 ovarian
# [34] = tested on: OVCAR-4 ovarian
# [35] = tested on: OVCAR-5 ovarian
# [36] = tested on: OVCAR-8 ovarian
# [37] = tested on: RXF 393 renal
# [38] = tested on: RXF-631 renal
# [39] = tested on: SF-268 CNS
# [40] = tested on: SF-295 CNS
# [41] = tested on: SF-539 CNS
# [42] = tested on: SK-MEL-2 melanoma
# [43] = tested on: SK-MEL-28 melanoma
# [44] = tested on: SK-MEL-5 melanoma
# [45] = tested on: SK-OV-3 ovarian
# [46] = tested on: SN12C renal
# [47] = tested on: SNB-19 CNS
# [48] = tested on: SNB-75 CNS
# [49] = tested on: SNB-78 CNS
# [50] = tested on: SR leukemia
# [51] = tested on: SW-620 colon
# [52] = tested on: TK-10 renal
# [53] = tested on: U251 CNS
# [54] = tested on: UACC-257 melanoma
# [55] = tested on: UACC-62 melanoma
# [56] = tested on: UO-31 renal
# [57] = tested on: XF 498 CNS
# [58] = tested on: NCI-H522 lung
# [59] = tested on: RPMI-8226 leukemia
smiles,measurement,setting,value
C[Si](C)(C)/C(Br)=C\CCN1C(=O)CCC1=O,TGI,[1],> 100 µM
same,TGI,[2],> 100 µM
same,TGI,[3],> 100 µM
same,TGI,[4],> 100 µM
same,TGI,[5],> 100 µM
same,TGI,[6],> 100 µM
same,TGI,[7],> 100 µM
same,TGI,[8],> 100 µM
same,TGI,[9],> 100 µM
same,TGI,[10],> 100 µM
same,TGI,[11],> 100 µM
same,TGI,[12],> 100 µM
same,TGI,[13],> 100 µM
same,TGI,[14],> 100 µM
same,TGI,[15],> 100 µM
same,TGI,[16],> 100 µM
same,TGI,[17],> 100 µM
same,TGI,[18],> 100 µM
same,TGI,[19],> 100 µM
same,TGI,[20],> 100 µM
same,TGI,[21],> 100 µM
same,TGI,[22],> 100 µM
same,TGI,[23],> 100 µM
same,TGI,[24],> 100 µM
same,TGI,[25],> 100 µM
same,TGI,[26],> 100 µM
same,TGI,[27],> 100 µM
same,TGI,[28],> 100 µM
same,TGI,[29],> 100 µM
same,TGI,[30],> 100 µM
same,TGI,[31],> 100 µM
same,TGI,[32],> 100 µM
same,TGI,[33],> 100 µM
same,TGI,[34],> 100 µM
same,TGI,[35],> 100 µM
same,TGI,[36],> 100 µM
same,TGI,[37],> 100 µM
same,TGI,[38],> 100 µM
same,TGI,[39],> 100 µM
same,TGI,[40],> 100 µM
same,TGI,[41],> 100 µM
same,TGI,[42],> 100 µM
same,TGI,[43],> 100 µM
same,TGI,[44],> 100 µM
same,TGI,[45],> 100 µM
same,TGI,[46],> 100 µM
same,TGI,[47],> 100 µM
same,TGI,[48],> 100 µM
same,TGI,[49],> 100 µM
same,TGI,[50],> 100 µM
same,TGI,[51],> 100 µM
same,TGI,[52],> 100 µM
same,TGI,[53],> 100 µM
same,TGI,[54],> 100 µM
same,TGI,[55],> 100 µM
same,TGI,[56],> 100 µM
same,TGI,[57],> 100 µM
CS/C(=C(\S)c1ccccc1)c1ccccc1,TGI,[1],> 100 µM
same,TGI,[2],> 100 µM
same,TGI,[3],> 100 µM
same,TGI,[4],> 100 µM
same,TGI,[5],> 100 µM
same,TGI,[7],> 100 µM
same,TGI,[8],> 100 µM
same,TGI,[9],> 100 µM
same,TGI,[10],> 100 µM
same,TGI,[11],> 100 µM
same,TGI,[12],> 100 µM
same,TGI,[13],> 100 µM
same,TGI,[14],> 100 µM
same,TGI,[15],> 100 µM
same,TGI,[16],> 100 µM
same,TGI,[17],> 100 µM
same,TGI,[18],> 100 µM
same,TGI,[19],> 100 µM
same,TGI,[20],> 100 µM
same,TGI,[21],> 100 µM
same,TGI,[22],> 100 µM
same,TGI,[23],> 31.6 µM
same,TGI,[24],> 100 µM
same,TGI,[25],> 100 µM
same,TGI,[26],> 100 µM
same,TGI,[27],> 100 µM
same,TGI,[28],> 100 µM
same,TGI,[30],> 100 µM
same,TGI,[31],> 100 µM
same,TGI,[32],> 100 µM
same,TGI,[58],> 100 µM
same,TGI,[33],> 100 µM
same,TGI,[34],> 100 µM
same,TGI,[35],> 100 µM
same,TGI,[36],> 100 µM
same,TGI,[59],> 100 µM
same,TGI,[37],> 100 µM
same,TGI,[38],> 100 µM
same,TGI,[39],> 100 µM
same,TGI,[40],> 100 µM
same,TGI,[41],> 100 µM
same,TGI,[42],> 100 µM
same,TGI,[43],> 100 µM
same,TGI,[44],> 100 µM
same,TGI,[45],> 100 µM
same,TGI,[46],> 100 µM
same,TGI,[47],> 100 µM
same,TGI,[48],> 100 µM
same,TGI,[49],> 100 µM
same,TGI,[50],> 100 µM
same,TGI,[51],> 100 µM
same,TGI,[52],> 100 µM
same,TGI,[53],> 100 µM
same,TGI,[54],> 100 µM
same,TGI,[55],> 100 µM
same,TGI,[56],> 100 µM
same,TGI,[57],> 100 µM
